Results published in US9463197B2, “Method for treating abnormal polyglutamine-mediated disease” (NATIONAL TAIWAN NORMAL UNIVERSITY, priority 2013, dated 2016).

Columns and labels:
293 ATXN3/Q75-GFP cells = assay: ATXN3/Q75 aggregation assay (high content analysis); type: cell-based; details: at 100 nM; doxycycline and oxaliplatin 6 days; positive control
Protocol: 293 ATXN3/Q75-GFP cells were plated into 96-well (2×10^4/well) dishes, grown for 24 hr and treated with different concentrations of the trehalose or analogs (100 nM˜100 μM) and suberoylanilide hydroxamic acid (SAHA, Cayman Chemical) for 8 hr. Then, doxycycline (10 μg/mL, BD) was added to the medium in each well to induce ATXN3/Q75-GFP expression for 6 days. Oxaliplatin (5 μM, Sigma) was also added to increase aggregate accumulation through inhibition of cell division. Then, cells were stained with Hoechst 33342 (0.1 μg/mL, Sigma) and aggregation percentage was assessed by high content analysis (HCA) system (ImageXpressMICRO, Molecular Devices), with excitation/emission wavelengths at 482/536 (EGFP).
In the present example, the influences of the trehalose and analogs and HDAC inhibitor SAHA in the ATXN3/Q75-GFP cells were respectively examined. After 6 days of the treatment of doxycycline and oxaliplatin, the fluorescence microscopy images were observed, and aggregation percentage of ATXN3/Q75-GFP cells was assessed by high-content analysis system. The result was shown in FIG. 3, as a positive control, HDAC inhibitor SAHA reduced the ATXN3/Q75 aggregation to 85% (at 100 nM) as compared to untreated cells (100%).

porcine kidney trehalase = molecular target: T1, porcine kidney trehalase (Sus scrofa, UniProt I3LIR5); assay: Inhibition of analogs against trehalase activity (glucose from trehalose, HPLC); type: biochemical; details: preincubated 30 min at 37°C
T1 sequence (I3LIR5 24-583): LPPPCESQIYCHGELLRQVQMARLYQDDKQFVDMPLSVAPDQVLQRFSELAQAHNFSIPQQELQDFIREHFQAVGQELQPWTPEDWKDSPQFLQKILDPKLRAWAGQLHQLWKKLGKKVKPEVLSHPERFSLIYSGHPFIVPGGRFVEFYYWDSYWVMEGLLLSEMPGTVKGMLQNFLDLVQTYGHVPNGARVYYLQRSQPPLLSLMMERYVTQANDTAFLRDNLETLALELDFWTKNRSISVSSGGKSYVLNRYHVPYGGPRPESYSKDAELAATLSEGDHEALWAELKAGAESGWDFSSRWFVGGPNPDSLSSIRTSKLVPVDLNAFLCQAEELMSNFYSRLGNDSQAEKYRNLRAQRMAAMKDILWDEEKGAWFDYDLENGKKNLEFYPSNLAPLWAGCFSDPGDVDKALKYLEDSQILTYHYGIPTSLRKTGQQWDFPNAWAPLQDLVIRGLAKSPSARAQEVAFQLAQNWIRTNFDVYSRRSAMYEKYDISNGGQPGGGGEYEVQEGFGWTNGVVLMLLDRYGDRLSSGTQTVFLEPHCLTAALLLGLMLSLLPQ
Protocol: Hydrolysis of trehalose and analogs was tested using porcine kidney trehalase (Sigma-Aldrich, T8778). The standard reaction was performed by adding 0.001 unit of trehalase into 50 μl reaction solution containing 135 mM citric acid (pH 5.7) and 28 mM trehalose or trehalose analogs. […] The standard reaction was performed by adding 0.001 unit of trehalase into 50 μl reaction solution containing 135 mM citric acid (pH 5.7) and 44.8 mM α-D-lactulose, 44.8 mM α-D-melibiose, 0.2 μM validamycin A, or 0.2 μM validoxylamine A. Trehalase was incubated with analog for 30 min at 37° C., and the reaction was then started by addition of trehalose. After incubation at 37° C. for 2 hr, the reaction was terminated by heating the mixture in boiling water for 15 min. The activity of trehalase was assayed by measuring the amount of glucose produced from trehalose. The amount of carbohydrates after each enzymatic reaction was measured using a high-performance liquid chromatography (HPLC) system (Schambeck SFD 2100) equipped with an refractive index (RI) detector (SFD, RI 2000) at a flow rate of 1 ml/min. A carbohydrate analysis column (Shodex SUGAR SZ5532, 6.0 mm ID×150 mm L) equilibrated with 75% acetonitrile, 24% Milli-Q water, and 1% formic acid was used. The RI detector and column oven temperature were set to 40 and 60° C., respectively.
Hydrolysis of trehalose, lactulose and melibiose (28 mM) was tested using porcine kidney trehalase (1 mU).

## O=C(CCCCCCC(=O)Nc1ccccc1)NO [SAHA, suberoylanilide hydroxamic acid]
293 ATXN3/Q75-GFP cells
  ATXN3/Q75 aggregation as compared to untreated cells (100%): 85%

## OC[C@H]1O[C@@H](O[C@@H]2[C@@H](CO)O[C@](O)(CO)[C@H]2O)[C@H](O)[C@@H](O)[C@H]1O [lactulose, α-D-lactulose]
Porcine kidney trehalase; 44.8 mM analog
  Inhibition of trehalase activity (glucose generated from trehalose): did not inhibit the trehalase activity

## OC[C@H]1O[C@H](OC[C@H]2O[C@H](O)[C@H](O)[C@@H](O)[C@@H]2O)[C@H](O)[C@@H](O)[C@H]1O [melibiose, D-(+)-melibiose]
Porcine kidney trehalase; 44.8 mM analog
  Inhibition of trehalase activity (glucose generated from trehalose): did not inhibit the trehalase activity

## OCC1=C[C@@H](N[C@H]2C[C@H](CO)[C@@H](O[C@H]3O[C@@H](CO)[C@H](O)[C@@H](O)[C@@H]3O)[C@H](O)[C@H]2O)[C@H](O)[C@@H](O)[C@@H]1O [validamycin A]
Porcine kidney trehalase; 0.2 μM inhibitor
  Inhibition of trehalase activity (glucose generated from trehalose): can inhibit the trehalase activity

## OCC1=C[C@H](N[C@H]2C[C@H](CO)[C@@H](O)[C@H](O)[C@H]2O)[C@H](O)[C@@H](O)[C@@H]1O [validoxylamine A]
Porcine kidney trehalase; 0.2 μM inhibitor
  Inhibition of trehalase activity (glucose generated from trehalose): can inhibit the trehalase activity
